In BindingDB's records for doi:10.1021/ja00082a004 (Nci-Fcrdc, 1994):

target: T1, Dimer of Gag-Pol polyprotein [489-587] (Human immunodeficiency virus 1, UniProt P12497); test: Protease Inhibition Assay; conditions: pH 4.7; 30 °C
T1 construct: 489-587
Protocol: HIV-1 protease activity was measured by a continuous fluorometric assay using the internally quenched fluorogenic substrate DABCYL-GABA-Ser-Gln-Tyr-Pro-Ile-Val-Gln-EDANS (BACHEM; M-1865) and a SPEX FluoroMax spectrofluorometer (excitation 340 nm, emission 490 nm). The apparent Ki was estimated by nonlinear regression (GraFit, Erithacus Software) to the equation for tight-binding inhibitor.

Structure (SMILES)	Ki
CC(C)[C@H](NC(=O)N(C)Cc1ccccn1)C(=O)N[C@@H](Cc1ccccc1)[C@@H](O)[C@H](O)[C@H](Cc1ccccc1)NC(=O)[C@@H](NC(=O)N(C)Cc1ccccn1)C(C)C [(2S)-N-[(2S,3R,4R,5S)-3,4-dihydroxy-5-[(2S)-3-methyl-2-{[methyl(pyridin-2-ylmethyl)carbamoyl]amino}butanamido]-1,6-diphenylhexan-2-yl]-3-methyl-2-{[methyl(pyridin-2-ylmethyl)carbamoyl]amino}butanamide]	0.112 nM
CC(C)[C@H](NC(=O)N(C)Cc1ccccn1)C(=O)N[C@@H](Cc1ccccc1)[C@H](O)[C@H](O)[C@H](Cc1ccccc1)NC(=O)[C@@H](NC(=O)N(C)Cc1ccccn1)C(C)C [(2S)-N-[(2S,3R,4S,5S)-3,4-dihydroxy-5-[(2S)-3-methyl-2-{[methyl(pyridin-2-ylmethyl)carbamoyl]amino}butanamido]-1,6-diphenylhexan-2-yl]-3-methyl-2-{[methyl(pyridin-2-ylmethyl)carbamoyl]amino}butanamide]	0.012 nM
CC(C)[C@H](NC(=O)N(C)Cc1ccccn1)C(=O)N[C@@H](Cc1ccccc1)C[C@@H](O)[C@H](Cc1ccccc1)NC(=O)[C@@H](NC(=O)N(C)Cc1ccccn1)C(C)C [(2S)-N-[(2S,3R,5S)-3-hydroxy-5-[(2S)-3-methyl-2-{[methyl(pyridin-2-ylmethyl)carbamoyl]amino}butanamido]-1,6-diphenylhexan-2-yl]-3-methyl-2-{[methyl(pyridin-2-ylmethyl)carbamoyl]amino}butanamide]	0.004 nM
CC(C)[C@H](NC(=O)N(C)Cc1ccccn1)C(=O)N[C@@H](Cc1ccccc1)[C@H](O)[C@@H](O)[C@H](Cc1ccccc1)NC(=O)[C@@H](NC(=O)N(C)Cc1ccccn1)C(C)C [JMC51852 Inhibitor PP]	0.011 nM
